Experimental data: PubChem BioAssay (NCI)
Values joined by “and” are separate entries in the source; they are usually repeats but may differ in a detail not shown here. Equal values may be shown once.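 Growth conditions: 96-well plates. Treatment: test compound, 48 hours, 5 concentrations. Analysis: linear interpolation between bracketing concentrations; unreached endpoints set to highest concentration. Here, GI50 denotes the concentration required for 50% inhibition of growth. TGI: total growth inhibition.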

Assays:
Assay in all cases: NCI tumour cell line growth inhibition, 48 h
KM20L2 colon = system: KM20L2 colon
SF-539 CNS = system: SF-539 CNS
HOP-92 NSCLC = system: HOP-92 NSCLC
OVCAR-8 ovarian = system: OVCAR-8 ovarian
LOX IMVI melanoma = system: LOX IMVI melanoma
NCI-H460 lung = system: NCI-H460 lung
NCI-H226 lung = system: NCI-H226 lung
M19-MEL melanoma = system: M19-MEL melanoma
HOP-18 NSCLC = system: HOP-18 NSCLC

| SMILES | GI50 (KM20L2 colon) [µM] | TGI (KM20L2 colon) [µM] | GI50 (SF-539 CNS) [µM] | TGI (SF-539 CNS) [µM] | TGI (HOP-92 NSCLC) | TGI (OVCAR-8 ovarian) | TGI (LOX IMVI melanoma) | TGI (NCI-H460 lung) | TGI (NCI-H226 lung) | TGI (M19-MEL melanoma) [µM] | TGI (HOP-18 NSCLC) [µM] | GI50 (HOP-92 NSCLC) [µM] | GI50 (OVCAR-8 ovarian) [µM] | GI50 (LOX IMVI melanoma) [µM] | GI50 (NCI-H460 lung) [µM] | GI50 (NCI-H226 lung) [µM] |
| --- | --- | --- | --- | --- | --- | --- | --- | --- | --- | --- | --- | --- | --- | --- | --- | --- |
| O=c1cccccc1[O-].O=c1cccccc1[O-].O=c1cccccc1[O-].[La+3] | 17 | > 100 | 5.62 | 38 | > 100 µM | 51.5 µM | > 100 µM | > 100 µM | 99 µM |  |  |  |  |  |  |  |
| N#Cc1cccc(/C=N/N=C(\N)NO)c1 |  |  |  | > 100 | > 100 µM | > 100 µM | > 100 µM | > 100 µM | > 100 µM | > 100 | > 100 |  |  |  |  |  |
| COc1ccc(C2ON(c3cccc(C)n3)CC=C2C)cc1 (configuration not stated) |  | > 100 |  | > 100 |  | > 100 µM | > 100 µM | > 100 µM | > 100 µM | > 100 | > 100 |  |  |  |  |  |
| CC(=O)OCC1OC(n2c(-c3ccc(C)cc3)cc(-c3ccccc3)c(C#N)c2=O)C(OC(C)=O)C(OC(C)=O)C1OC(C)=O (configuration not stated) |  | > 100 |  | > 100 | > 100 µM | > 100 µM | > 100 µM | > 100 µM | > 100 µM | > 100 |  |  |  |  |  |  |
| CCOC(=O)c1[nH]c(COC(C)=O)c2c1CCCCCCCCCC2 |  | > 100 |  | > 100 | > 100 µM | > 100 µM | > 100 µM | > 100 µM | > 100 µM | > 100 | > 100 |  |  |  |  |  |
| CN(C)c1ccc(/C=c2\sc3nc4ccccc4n3c2=O)cc1 |  | > 100 |  | > 100 | > 100 µM | > 100 µM | > 100 µM | > 100 µM | > 100 µM | > 100 | > 100 |  |  |  |  |  |
| Cc1cc(C)c(-n2c(-c3ccc(Br)cc3)cs/c2=N\N=C2C=C(C(C)(C)C)C(=O)C(C(C)(C)C)=C2)c(C)c1 |  | > 100 |  | > 100 | > 89.8 µM | > 100 µM | > 100 µM | > 100 µM | > 100 µM | > 100 | > 100 |  |  |  |  |  |
| CCCSS[C@H]1NC(=O)[C@H]1NC(=O)COc1ccccc1 |  | 42.4 |  | 29.5 | 24.4 µM | 27.6 µM | 30.2 µM | 31.4 µM |  | 33 | 66.7 |  |  |  |  |  |
| COC(=O)Nc1nc2ccc(Br)cc2[nH]1 |  | 64.1 |  | 57.3 | > 100 µM | > 100 µM | > 100 µM | > 100 µM | > 100 µM | > 100 | > 100 |  |  |  |  |  |
| Clc1ccc(C(n2cc(Br)cn2)n2cc(Br)cn2)cc1 |  |  |  |  | 30.6 µM | 36.5 µM |  | 33.7 µM | 22.5 µM | 32.6 | 34.4 |  |  |  |  |  |
| Cn1cc2ccccc2c1-c1nc(F)nc(OCC(=O)[C@H]2CCC3[C@@H]4CCC5=CC(=O)CC[C@]5(C)C4[C@@H](O)C[C@@]32C)n1 (some centres not stated) |  | > 57 |  | 35.1 | 36.6 µM | 18.5 µM | 23.3 µM | 52.2 µM | 36.5 µM | 14.9 | 29.2 |  |  |  |  |  |
| CN1C(=O)C2C(C1=O)C1(O)c3ccccc3C2(N)c2ccccc21 (configuration not stated) |  |  |  | > 100 | > 100 µM | > 100 µM | > 100 µM | > 100 µM | > 100 µM | > 100 | > 100 |  |  |  |  |  |
| N#CC1CC2(CCN1C(=O)c1ccccc1)OCCO2 (configuration not stated) |  | > 100 |  | > 100 | > 100 µM | > 100 µM |  | > 100 µM | > 100 µM | > 100 | > 100 |  |  |  |  |  |
| NC(N)=NS(=O)(=O)c1ccc(NCCc2c3ccccc3nc3ccccc23)cc1 |  | > 100 |  | > 100 | > 100 µM | > 100 µM | > 100 µM | > 100 µM | > 100 µM | > 100 |  |  |  |  |  |  |
| NCCCNCCCCNC(=O)C(O)NC(=O)CCCCCCN=C(N)N (configuration not stated) |  | 734 | > 4070 | > 5000 | 745 µM and > 4350 µM | 750 µM and > 5000 µM | 750 µM and 1570 µM | 750 µM and > 5000 µM | 750 µM and > 5000 µM | 750 | 744 | 2660 | 2440 | 828 | > 2770 | 2430 |
| O=C1C(=Cc2c(O)cc(O)cc2O)C(=O)c2ccccc21 |  | > 57.6 |  | > 58.5 | > 58 µM | > 59.7 µM | 29.2 µM | > 67.7 µM | > 63 µM | > 53 | 58.7 |  |  |  |  |  |
| CC(=O)C1=C(O)CC2CC3c4[nH]c5ccccc5c4CCN3CC2C1 (configuration not stated) |  | > 100 |  | > 100 |  | > 100 µM | > 100 µM | > 100 µM | > 100 µM |  | > 100 |  |  |  |  |  |
| Cc1cc(Cl)ccc1NC(=O)CC1SC(=Nc2ccccc2Cl)NC1=O (configuration not stated) |  | 88.2 |  | 55.3 | > 100 µM | > 100 µM |  | > 100 µM | > 100 µM | > 100 | > 100 |  |  |  |  |  |
| NC(N)=NS(=O)(=O)c1ccc(Nc2c3ccccc3nc3c(C(=O)Nc4ccc(S(N)(=O)=O)cc4)cccc23)cc1 |  | > 100 |  | > 100 | > 100 µM | > 100 µM | > 100 µM | > 100 µM |  | > 100 | > 100 |  |  |  |  |  |
| Cn1cc(C(=O)C[n+]2ccccc2)c2ccccc21 |  | > 100 |  | > 100 |  | > 100 µM | > 100 µM | > 100 µM | 59.1 µM | > 100 |  |  |  |  |  |  |
| CCN(CC)c1ccc(N=Nc2ccc(-c3nc4ccc[n+](C)c4o3)cc2)cc1 |  | 25.9 |  | 20.3 | 33.4 µM | 18.8 µM | 18.5 µM | 29.2 µM | 27.6 µM | 16.3 | 38.3 |  |  |  |  |  |
| COc1ccccc1NC(=O)CC(=O)N/N=C/c1ccc(N(CCC#N)S(=O)(=O)c2ccccc2)cc1 |  | > 100 |  |  | > 100 µM | > 100 µM | > 100 µM | > 100 µM | > 100 µM | > 100 | > 100 |  |  |  |  |  |
